No end group written: not given here.
Molecular target: T1, ΔIBB-h-importin-α1 (Homo sapiens, UniProt P52292, DEL11-54)
T1 construct: IBB domain-truncated h-importin-α1 (Δ-h-importin-α1) (1–10, 55–529); GST (N, cleaved yes); His6 (C); made in house; host or cells: E. coli BL21 (DE3) Codonplus-RIL
Experiment: ITC binding of NLS peptides to ΔIBB-h-importin-α1

## KRPAATKKAGQAKKKK [nucleoplasmin NLS]
  Kd: 140 ± 50 nM
